Results on nine molecules are retold here after ChEMBL document CHEMBL5532714, “Discovery of Kebanmycins with Antibacterial and Cytotoxic Activities from the Mangrove-Derived Streptomyces sp. SCSIO 40068” (J Nat Prod, 2024).

Values after ≈ are worked out from the molar mass of the structure shown. Where a name gives a salt, the structure may show the parent alone.

A word on the MIC: it is the lowest concentration found to suppress growth. As a reminder, the IC50 is the concentration that gives 50% inhibition.

For data set [1], the system named is Staphylococcus aureus. The data set can be described thus: Antibacterial activity against methicillin-resistant Staphylococcus aureus 1862 assessed as bacterial growth inhibition incubated for 16 hrs by broth microdilution method. It is filed as functional. In general terms: Broth dilution looks for growth in wells or tubes with falling amounts of substance.

The subject of another data set is Bacillus subtilis. The data set can be described thus: Antibacterial activity against Bacillus subtilis 1064 assessed as bacterial growth inhibition incubated for 16 hrs by broth microdilution method. Format: functional.
Data set [2] relates to Staphylococcus aureus. The data set can be described thus: Antibacterial activity against methicillin-resistant Staphylococcus aureus shhs-A1 assessed as bacterial growth inhibition incubated for 16 hrs by broth microdilution method. It is filed as functional.
A short description of data set [3]: (§1) Cytotoxicity against human MCF7 cells assessed as cell growth inhibition. The conditions noted are these: MCF7 cells. Format: toxicity, cell-based.
Data set [4] can be described thus: (§2) Cytotoxicity against human HepG2 cells assessed as cell growth inhibition. The conditions noted are these: HepG2 cells. It is filed as toxicity, cell-based.
The test system of data set [5] is Staphylococcus aureus. The data set can be described thus: Antibacterial activity against Staphylococcus aureus ATCC 29213 assessed as bacterial growth inhibition incubated for 16 hrs by broth microdilution method. Format: functional.
For the next data set, the system named is Vibrio alginolyticus. The data set can be described thus: Antibacterial activity against Vibrio alginolyticus ATCC 13214 assessed as bacterial growth inhibition incubated for 16 hrs by broth microdilution method. Format: functional.
Data set [6] relates to Staphylococcus aureus. The data set can be described thus: Antibacterial activity against methicillin-resistant Staphylococcus aureus 991 assessed as bacterial growth inhibition incubated for 16 hrs by broth microdilution method. It is filed as functional.
For data set [7], the system named is Staphylococcus aureus. The data set can be described thus: Antibacterial activity against methicillin-resistant Staphylococcus aureus 669 assessed as bacterial growth inhibition incubated for 16 hrs by broth microdilution method. It is filed as functional.
In the next data set the test system is Acinetobacter baumannii. The data set can be described thus: Antibacterial activity against Acinetobacter baumannii 19606 assessed as bacterial growth inhibition incubated for 16 hrs by broth microdilution method. It is filed as functional.
The subject of another data set is MCF7. The description is as §1. The conditions noted are these: mcf7. Format: toxicity, cell-based.
The next data set concerns HepG2. Described as §2. Conditions: hepg2. It is filed as toxicity, cell-based.

Regarding `CCC[C@@H]1Cc2cc3c(c(O)c2C(=O)O1)-c1c(c(OC)c2oc4ccc(O[C@H]5C[C@@H](O)[C@H](O[C@H]6C[C@@H](O)[C@H](O[C@H]7C[C@@H](OC)[C@H](O)[C@@H](C)O7)[C@@H](C)O6)[C@@H](C)O5)c(O)c4c(=O)c2c1O)C[C@H]3O`, the MIC in the data set on Staphylococcus aureus [1] was 0.125 µg/mL (≈ 0.135 µM); with Bacillus subtilis it was over 64 µg/mL; in the data set on Staphylococcus aureus [2], 0.125 µg/mL (≈ 0.135 µM); in the data set with Staphylococcus aureus [5], 0.125 µg/mL (≈ 0.135 µM); in the data set with Vibrio alginolyticus, over 64 µg/mL; in the data set on Staphylococcus aureus [6], 0.5 µg/mL (≈ 0.541 µM). In addition, the MIC with Staphylococcus aureus [7] was 0.5 µg/mL (≈ 0.541 µM); in the data set on Acinetobacter baumannii, over 64 µg/mL. Also, the concentration for half-maximal inhibition (IC50) in data set [3] amounted to 0.12 µM; in data set [4] it was 0.25 µM.

Regarding `CCC[C@@H]1Cc2cc3c(c(O)c2C(=O)O1)-c1c(c(OC)c2oc4ccc(O)c(O)c4c(=O)c2c1O)[C@H](O)[C@H]3O`, the minimal inhibitory concentration (MIC) amounted to 4 µg/mL (≈ 7.46 µM) with Staphylococcus aureus [1]; 16 µg/mL (≈ 29.8 µM) in the data set with Bacillus subtilis; 8 µg/mL (≈ 14.9 µM) with Staphylococcus aureus [2]; 8 µg/mL (≈ 14.9 µM) with Staphylococcus aureus [5]; 32 µg/mL (≈ 59.6 µM) in the data set on Vibrio alginolyticus; 8 µg/mL (≈ 14.9 µM) in the data set on Staphylococcus aureus [6]. In addition, the minimum inhibitory concentration (MIC) was determined as 8 µg/mL (≈ 14.9 µM) in the data set on Staphylococcus aureus [7] and 64 µg/mL (≈ 119 µM) in the data set with Acinetobacter baumannii. For the same molecule, the IC50 in [3] is 0.46 µM; in data set [4], 13 µM.

Take `COc1cccc2c1C(=O)c1c(O)c3c(c(O)c1C2=O)C[C@@](O)(C(=O)CO)C[C@@H]3O[C@H]1C[C@H](N)[C@H](O)[C@H](C)O1` [DOXORUBICIN HYDROCHLORIDE]: in data set [4], the IC50 turned out to be 3.1 µM.

For `CCC[C@@H]1Cc2cc3c(c(O)c2C(=O)O1)-c1c(c(OC)c2oc4ccc(O[C@H]5C[C@@H](O)[C@H](O)[C@@H](C)O5)c(O)c4c(=O)c2c1O)[C@H](O)[C@H]3O`, the MIC in the data set on Staphylococcus aureus [1] is 1 µg/mL (≈ 1.5 µM); in the data set with Bacillus subtilis it was 4 µg/mL (≈ 6 µM); in the data set on Staphylococcus aureus [2], 0.5 µg/mL (≈ 0.75 µM); with Staphylococcus aureus [5], 0.5 µg/mL (≈ 0.75 µM); in the data set with Vibrio alginolyticus, over 64 µg/mL; in the data set with Staphylococcus aureus [6] it was 2 µg/mL (≈ 3 µM). In addition, the MIC was 2 µg/mL (≈ 3 µM) with Staphylococcus aureus [7] and over 64 µg/mL with Acinetobacter baumannii. In addition, the half-inhibitory concentration (IC50) was 0.76 µM in [3] and 31 µM in [4].

With `O=C(O)c1cn(C2CC2)c2cc(N3CCNCC3)c(F)cc2c1=O` [CIPROFLOXACIN], the MIC in the data set with Vibrio alginolyticus and in the data set on Acinetobacter baumannii was 0.125 µg/mL (≈ 0.377 µM) each time.

In the case of `CCC[C@@H]1Cc2cc3c(c(O)c2C(=O)O1)-c1c(c(OC)c2oc4ccc(O[C@H]5C[C@@H](O)[C@H](O[C@H]6C[C@@H](O)[C@H](O[C@H]7C[C@@H](O)[C@H](O)[C@@H](C)O7)[C@@H](C)O6)[C@@H](C)O5)c(O)c4c(=O)c2c1O)[C@H](O)[C@H]3O`, the MIC in the data set on Staphylococcus aureus [1] was 1 µg/mL (≈ 1.08 µM); in the data set on Bacillus subtilis, 1 µg/mL (≈ 1.08 µM); in the data set on Staphylococcus aureus [2], 2 µg/mL (≈ 2.16 µM); with Staphylococcus aureus [5], 2 µg/mL (≈ 2.16 µM); with Vibrio alginolyticus it was over 64 µg/mL; in the data set with Staphylococcus aureus [6], 2 µg/mL (≈ 2.16 µM). In addition, the results for the MIC in the data set on Staphylococcus aureus [7] and with Acinetobacter baumannii were 2 µg/mL (≈ 2.16 µM) and over 64 µg/mL, respectively. For the same molecule, the half-inhibitory concentration (IC50) in data set [3] is 1.8 µM; in [4], 4.4 µM.

With `CN[C@H](CC(C)C)C(=O)N[C@H]1C(=O)N[C@@H](CC(N)=O)C(=O)N[C@H]2C(=O)N[C@H]3C(=O)N[C@H](C(=O)N[C@H](C(=O)O)c4cc(O)cc(O)c4-c4cc3ccc4O)[C@H](O)c3ccc(c(Cl)c3)Oc3cc2cc(c3O[C@@H]2O[C@H](CO)[C@@H](O)[C@H](O)[C@H]2O[C@H]2C[C@](C)(N)[C@H](O)[C@H](C)O2)Oc2ccc(cc2Cl)[C@H]1O` [VANCOMYCIN], the MIC in the data set with Bacillus subtilis stood at 0.25 µg/mL (≈ 0.173 µM).

Take `CCCC(=O)Cc1cc2c(c(O)c1C(=O)O)-c1cc3c(c(O)c1CC2)C(=O)c1c(O)cc(O)cc1C3=O`: the minimal inhibitory concentration (MIC) with Staphylococcus aureus [1] is 16 µg/mL (≈ 31.8 µM); in the data set with Bacillus subtilis, over 64 µg/mL; with Staphylococcus aureus [2], 16 µg/mL (≈ 31.8 µM); in the data set on Staphylococcus aureus [5], 32 µg/mL (≈ 63.7 µM); in the data set with Vibrio alginolyticus it was over 64 µg/mL; with Staphylococcus aureus [6] it was 16 µg/mL (≈ 31.8 µM). Also, the minimum inhibitory concentration (MIC) in the data set with Staphylococcus aureus [7] was 16 µg/mL (≈ 31.8 µM); with Acinetobacter baumannii, over 64 µg/mL. For the same molecule, the Activity entry in the data set with MCF7 and with HepG2 was “Non-Toxic” in each case.

Consider `CCC[C@@H]1Cc2cc3c(c(O)c2C(=O)O1)-c1c(c(OC)c2oc4ccc(O[C@H]5C[C@@H](O)[C@H](O[C@H]6C[C@@H](O)[C@H](O[C@H]7C[C@@H](OC)[C@H](O)[C@@H](C)O7)[C@@H](C)O6)[C@@H](C)O5)c(O)c4c(=O)c2c1O)[C@H](O)[C@H]3O`, for which the minimum inhibitory concentration (MIC) with Staphylococcus aureus [1] is 1 µg/mL (≈ 1.06 µM); in the data set with Bacillus subtilis, 0.125 µg/mL (≈ 0.133 µM); in the data set on Staphylococcus aureus [2], 2 µg/mL (≈ 2.13 µM); with Staphylococcus aureus [5] it was 2 µg/mL (≈ 2.13 µM); in the data set on Vibrio alginolyticus, over 64 µg/mL; with Staphylococcus aureus [6], 1 µg/mL (≈ 1.06 µM). The minimal inhibitory concentration (MIC) in the data set on Staphylococcus aureus [7] is 2 µg/mL (≈ 2.13 µM); in the data set with Acinetobacter baumannii it was over 64 µg/mL. Moreover, the 50% inhibitory concentration (IC50) in data set [3] was 4.1 µM; in data set [4], 7.9 µM.
